The term IC50 denotes the concentration at which inhibition is half-maximal. As usually defined, the Ki is a dissociation constant, usually derived from enzyme kinetics or from competition with a known ligand.

The target in test [1] is T1, Glutathione reductase, mitochondrial (Homo sapiens, UniProt P00390).
T1 sequence (P00390 whole entry): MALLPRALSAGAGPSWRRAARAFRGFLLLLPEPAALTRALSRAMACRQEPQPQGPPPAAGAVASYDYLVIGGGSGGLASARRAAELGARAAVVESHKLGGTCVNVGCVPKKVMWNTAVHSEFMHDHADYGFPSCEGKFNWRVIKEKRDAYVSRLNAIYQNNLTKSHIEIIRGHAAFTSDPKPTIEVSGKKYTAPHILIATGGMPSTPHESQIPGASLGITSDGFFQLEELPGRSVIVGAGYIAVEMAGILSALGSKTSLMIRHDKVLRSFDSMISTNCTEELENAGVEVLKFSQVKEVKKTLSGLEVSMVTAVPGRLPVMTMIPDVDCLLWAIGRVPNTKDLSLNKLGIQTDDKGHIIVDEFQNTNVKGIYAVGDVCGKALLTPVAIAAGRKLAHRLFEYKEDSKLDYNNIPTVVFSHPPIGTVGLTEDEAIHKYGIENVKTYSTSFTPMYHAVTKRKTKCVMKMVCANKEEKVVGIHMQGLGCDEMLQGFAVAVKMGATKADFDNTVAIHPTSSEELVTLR
The test can be described thus: Inhibition of human erythrocyte Glutathione reductase.

The target of test [2] is T1, Glutathione reductase, mitochondrial. The test can be described thus: Non-Competitive inhibition of human erythrocyte Glutathione reductase using GSSG substrate by Lineweaver-Burk plot analysis.
Test [3] shares this target.

The molecule `CC(C)(C)OC(=O)N[C@@H](CCCCNC(=O)OCc1ccccc1Cl)C(=O)Oc1ccc([N+](=O)[O-])cc1` gave an IC50 in test [1] of 15.4 µM. The molecule further had an inhibitory constant (Ki) in test [2] of 4.16 µM.
Take `CC[C@H](CO)NCc1ccc([N+](=O)[O-])cc1`: in test [1], 13.3 µM corresponded to half-maximal inhibition (IC50). In addition, the Ki in test [3] is 4.57 µM.
The matching figures for `O=C(O)CC[C@H](NC(=O)c1ccc([N+](=O)[O-])cc1)C(=O)O`: 0.344 µM and 0.211 µM.
In test [1], `N[C@@H](CCC(=O)O)C(=O)O` [GLUTAMIC ACID] yielded an IC50 of 53.7 µM. The same molecule gave a Ki in test [3] of 42.7 µM.
In test [1], `NCCCC[C@H](N)C(=O)O` [LYSINE] had a half-maximal inhibitory concentration (IC50) of 61.2 µM. In test [3], affinity was put at a Ki of 54.6 µM.
In turn, `COC(=O)C1=C(C)NC(C)=C(C(=O)OC)C1c1ccccc1[N+](=O)[O-]` [NIFEDIPINE] returned a half-inhibitory concentration (IC50) in test [1] of 23.4 µM. Also, the affinity in test [3] corresponds to a Ki of 17.4 µM.
For the molecule `O=[N+]([O-])c1ccccc1` [NITROBENZENE], the IC50 in test [1] worked out at 547 µM. The same molecule returned a Ki in test [3] of 274 µM.

Source of the values: ChEMBL document CHEMBL1821674, “Design, synthesis and biological evaluation of novel nitroaromatic compounds as potent glutathione reductase inhibitors” (Bioorg Med Chem Lett, 2011).
